For this test, the system named is CEM cells HIV-1 protection, formazan growth assay. Put plainly: NCI AIDS Antiviral Assay. As to conditions: for IC50: measured here: growth of uninfected CEM cells. The essentials:
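CEM (human) cells, HIV-1 infected vs uninfected, 5-point dosing, formazan growth read-out. Retest threshold 50% protection.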

Several values for one entry are separate records, joined by “and”; a condition that tells them apart may be missing. Equal entries are not always repeated. Activity calls are given as the source filed them.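 The calls were made as follows: active = compounds giving half or more protection of infected cells from virus-caused growth loss, again on retest; inactive = the rest.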 Where a SMILES comes first, the peptide text is derived from it. The star is where a group is joined. Fmoc = O=C(OCC1c2ccccc2-c2ccccc21)*; Boc = CC(C)(C)OC(=O)*; OtBu = CC(C)(C)O* A value given as a limit tells only on which side of the number the result lay.

Among the data in PubChem BioAssay AID179 (DTP/NCI, 2004) are outcome, IC50 and EC50 values, retold here.

With `COCCCN1CC(=O)N2Cc3ccccc3CN2C(=O)C1`, the result was inactive and the IC50 was > 200 µM. Consider `NC(=O)/N=N/C(N)=O`, for which the EC50 is 105 µM and the half-maximal inhibitory concentration (IC50) stood at 372 µM. On the same counts, the results for `CCOC(=O)/C(=C\n1c(=S)[nH]c2ccccc21)C(=O)c1ccccc1` are > 200 µM and > 200 µM. Consider `COc1ccc2cc1Oc1ccc(cc1)C[C@@H]1c3cc(c(OC)cc3CCN1C)Oc1c(O)c(OC)cc3c1CCN(C)C3C2` (stereo not given in full), for which the result was inactive. `O=c1[nH]c2cc(Cl)ccc2nc1/C(=N/Nc1ccccc1)C(O)c1ccco1` (stereo not given): the EC50 was > 575 µM and the IC50 is > 575 µM.

Take `Cn1ccnc1.[O-][Cl+3]([O-])([O-])[O-].[Pt+2].c1ccc(-c2cccc(-c3ccccn3)n2)nc1`: the EC50 is > 200 µM and the IC50 was 13.5 µM. For `O=C(O)c1ccccc1N=NNc1ccc(/C=C/c2ccc(N=NNc3ccccc3C(=O)O)cc2S(=O)(=O)O)c(S(=O)(=O)O)c1` the same measures were 6.31 µM and 389 µM.

In the case of `COC(=O)N/N=C/c1oc(-c2cccc([N+](=O)[O-])c2)c(-c2cccc([N+](=O)[O-])c2)c1[N+](=O)[O-]`, the EC50 is > 79.4 µM and the IC50 is > 79.4 µM. For the compound `CC(C)(C)OC(=O)CCC(NC(=O)OCC1c2ccccc2-c2ccccc21)C(=O)NC(Cc1c[nH]c2ccccc12)C(=O)NC(CCCCNC(=O)OC(C)(C)C)C(=O)N1CCCC1C(=O)NCC(N)=O` (stereo not given) (Fmoc-E(OtBu)WK(Boc)PG-NH2; configuration not given here), the EC50 is > 100 µM; the half-maximal inhibitory concentration (IC50) is > 100 µM and 44.7 µM. For `Cc1ccc(S(=O)(=O)/N=S(\C)c2ccc(Cl)cc2)cc1` (stereo not given), the EC50 is > 759 µM and the IC50 came out at 178 µM.

In the case of `CCCC(=O)C(CC)/C(CCC(=O)N(Cc1ccccc1)Cc1ccccc1)=N/NC(=O)C[N+](C)(C)C` (stereo not given), the result was inactive. Regarding `CCCCCCCCCCCCCCCCP(=O)(O)OP(=O)(O)OCC1OC(n2ccc(N)nc2=O)C(O)C1O` (stereo not given), the EC50 is > 200 µM. Regarding `NC(=S)N/N=C(/CCN1CCCC1)CC(C1=C(O)C2=CCCCC2OC1=O)c1ccccc1` (stereo not given), the EC50 is > 135 µM and the 50% inhibitory concentration (IC50) is > 135 µM. Turning to `Cc1oc(C)c2c1C(=O)c1ccccc1C2=O`, the EC50 was > 200 µM and the 50% inhibitory concentration (IC50) turned out to be 123 µM. As for `CSC1C(=O)Nc2ccc3ccccc3c21` (stereo not given), the EC50 was > 200 µM and the IC50 turned out to be 10.2 µM. Take `O=[N+]([O-])c1ccc2c(c1)N([O-])C1(CCCCC1)[N+]2=O`: the EC50 is > 200 µM and the IC50 was found to be 3.98 µM.

Consider `CC(C)=CCC[C@@H](C)C1=C(Nc2ccccc2Cl)C(O)=C(C)C(=O)C1=O`, for which the EC50 was > 200 µM and the IC50 was found to be 1.55 µM. Regarding `CCn1c2ccccc2c2ccc(C3C(C(=O)OC)=C(C)NC(C)=C3C(=O)OC)cc21`, the result was inactive. For the compound `CN(C)CC1=C(O)c2ccccc2C(=O)C1=O`, the EC50 is > 1070 µM and the IC50 was > 1070 µM.

For the compound `C1CSCCSCCSCCSCCS1`, the EC50 was > 17.4 µM and the IC50 is > 17.4 µM. Consider `Cc1cc(S(=O)(=O)Nc2nc(N)nc(N(C)C)n2)c(S)cc1Cl`, for which the EC50 is > 182 µM and the half-maximal inhibitory concentration (IC50) was determined as 166 µM. On to `CCOC(=O)c1sc(SC)nc1N`, for which the EC50 is > 200 µM and the IC50 was > 200 µM. For the compound `CC(C)C1CC=CC2[C@H]3C(C)(CC[C@]12CBr)C(Br)CC[C@@]3(C)O` (stereo not given in full), the result was inactive.

For `CC(=O)Nc1ccc(SSc2ccc(NC(C)=O)c3cccnc23)c2ncccc12`, the EC50 is > 200 µM and the half-maximal inhibitory concentration (IC50) came out at 2.34 µM. Regarding `S=C1NC2=S(N=C(Nc3ccccc3)N2c2ccccc2)S1` (stereo not given), the outcome was inactive. Take `Nc1ccc2c(=S)c3ccccc3[nH]c2c1`: the outcome was inactive. For `Nc1ncnc2snnc12`, the EC50 was > 200 µM and the IC50 is > 200 µM. With `O=C1NC(O)c2cc(CO)ccc2O1` (stereo not given), the EC50 was > 200 µM and the half-inhibitory concentration (IC50) turned out to be 95.5 µM.

As to `Nc1nc(-c2ccco2)cc(-c2ccco2)n1`, the EC50 is > 115 µM and the 50% inhibitory concentration (IC50) is > 115 µM.

Regarding `COc1ccc(OC)c(-n2nnc3ccccc3c2=O)c1`, the EC50 is > 302 µM and the IC50 was found to be 174 µM. Turning to `O=C1CCCSCCCC(=O)CCCSCCC1`, the EC50 was > 34.7 µM and the half-inhibitory concentration (IC50) is > 34.7 µM. Consider `Cc1nc2ccc(NC(=S)Nc3ccccc3)cc2c(=O)n1-c1ccccc1`, for which the EC50 was > 200 µM and the 50% inhibitory concentration (IC50) is > 200 µM. For the compound `O=C1/C(=C/c2ccc(O)cc2)CCc2ccc([N+](=O)[O-])cc21`, the EC50 was > 200 µM and the IC50 was 81.3 µM.

`COC(=O)c1cncc2c1CC1C3(C(=O)OC)C=NC(C4C(CO)=CCC43)C21C` (stereo not given): the result was inactive. With `CC1OCC2OC(C)OC(C3C4=C(CC(C)(C)CC4=O)OC4=C3C(=O)CC(C)(C)C4)C2O1` (stereo not given), the EC50 is > 562 µM and the IC50 was 550 µM. For `CN(C)C=C1C(=O)NC(=O)NC1=O` the same measures were > 200 µM and > 200 µM.

On to `N#CC(C#N)=CC=C1c2ccccc2Sc2ccccc21`, for which the EC50 is > 18.2 µM and the half-inhibitory concentration (IC50) is > 18.2 µM. Turning to `COC(=O)C1(Cc2ccc3c(c2)CCC3)Cc2ccccc2C1`, the EC50 was > 200 µM and the IC50 was determined as 35.5 µM. As to `C[N+](C)=C1C=CC(=C2C=C(c3ccccc3)Oc3ccccc32)C=C1`, the EC50 is > 200 µM and the 50% inhibitory concentration (IC50) is 1.17 µM.

For the compound `COC(=O)/C=C(/C(=O)OC)c1c(C)c(C)c2c(C)cc(C)cc(C)c1-2`, the EC50 is > 200 µM and the IC50 stood at 10 µM. Take `C=C(C)C12CC3CC/C(=N/O)C(C1)C3(N1CCOCC1)C/C2=N/O` (stereo not given): the EC50 is > 200 µM and the 50% inhibitory concentration (IC50) is > 200 µM.

With `Nc1snc2ncccc12`, the EC50 was > 1200 µM and the IC50 came out at 66.1 µM.

Regarding `COc1ccc(Br)c(CCCCC(=O)O)c1`, the result was inactive. As to `C/C=C/C=C\C=C/C(O)C(C)C(CCC(C)C1OC(=O)C=CC1C)OP(=O)(O)O` (stereo not given), the EC50 was > 2 µM and the concentration for half-maximal inhibition (IC50) turned out to be 0.129 µM.

Turning to `COCN1C(=O)[C@@H]2CCCN2C(=O)c2cc(OC)c(Cc3ccccc3)cc21`, the EC50 is > 200 µM and the IC50 is > 200 µM.

On to `N#C/C(=C\N1CCNC1=S)C(=O)c1ccc2ccccc2c1`, for which the EC50 is > 200 µM and the IC50 worked out at 151 µM. With `Cc1ccc(C(O)/C(=N/N)c2nc3ccc([N+](=O)[O-])cc3[nH]c2=O)cc1` (stereo not given), the EC50 was > 537 µM and the IC50 was 457 µM. On the same counts, the results for `COc1ncnc2c1ncn2C1OC(CO)CC1F` (stereo not given) are > 186 µM and > 186 µM. `COc1cc(C2c3c(ccc4ccccc34)C(=O)C3CCC(=O)N32)cc(OC)c1OC` (stereo not given): the EC50 is > 50.1 µM and the IC50 is 18.2 µM. On to `CCOC(=O)Cc1cc(=O)n(C)c2ccccc12`, for which the EC50 was > 200 µM and the concentration for half-maximal inhibition (IC50) was > 200 µM. In the case of `Fc1cccc(Cl)c1C1SCc2nc3ccccc3n21` (stereo not given), the EC50 was 0.0479 µM and the IC50 is 3.8 µM. For `CCOC(=O)NC(=O)c1cn(CCCCCOC(=O)NCCCCCCNC(=O)OCCCCCn2cc(C(=O)NC(=O)OCC)c(=O)[nH]c2=O)c(=O)[nH]c1=O`, the result was inactive. Same read-out and setting: the result for `Cc1cc2c(c(=O)n1C)COC2=O` reads “inactive”. For `O=C1N(CCO)C2=CCCCC23c2[nH]c4ccccc4c2CCN13` (stereo not given), the EC50 was > 200 µM and the half-maximal inhibitory concentration (IC50) was > 100 µM.

Turning to `CC(C)=O.O=C([O-])C(F)(F)F.O=C([O-])C(F)(F)F.O=C([O-])C(F)(F)F.O=C([O-])C(F)(F)F.[Rh+2].[Rh+2]`, the EC50 was > 200 µM and the IC50 is > 200 µM.

For `CCOC(=O)Nn1c(C)cc(C(=O)OC)c1C`, the outcome was inactive. Turning to `O=c1[nH]c2ccccc2c(=O)n1/N=C/c1ccc(O)cc1`, the EC50 was > 200 µM and the half-maximal inhibitory concentration (IC50) was > 200 µM.

On to `O=c1c2[nH]cnc2n(-c2ccccc2)c(=S)n1-c1ccccc1`, for which the EC50 was > 200 µM and the IC50 was > 200 µM.

Take `CCC1OC(=O)[C@H](C)C(OC2CC(C)(OC)C(O)C(C)O2)C(C)C(OC2OC(C)CC(N(C)C)C2O)[C@](C)(O)CC(C)CN(C)[C@H](C)[C@@H](O)[C@]1(C)O` (stereo not given in full): the EC50 is > 200 µM and the 50% inhibitory concentration (IC50) came out at 132 µM. For `C[Si](C)(C)C#CC#C[Si](C)(C)C.[Ni].[Ni].[Ni].[Ni].[c-]1[c-][c-][cH-][c-]1.[c-]1[c-][c-][cH-][c-]1.[c-]1[c-][c-][cH-][c-]1.[c-]1[c-][c-][cH-][c-]1` the same measures were > 2.09 µM and > 2.09 µM. For `[B-]1n2ccc[n+]2[B-]n2ccc[n+]21` the same measures were > 200 µM and > 200 µM.

With `CCC[CH2][Sn]1([CH2]CCC)[O]CC(CN(C)Cc2ccccc2)[O]1` (stereo not given), the EC50 is > 20.9 µM and the IC50 stood at 0.138 µM. For `NCCCN1CCN(CCCNc2ccc3ncn4c5ccccc5c(=O)c2c34)CC1` the same measures were > 25.1 µM and 1.2 µM. As to `CCN(CC)CCCC(C)Nc1c2ccc(Cl)cc2nc2c(Cl)cc(Cl)cc12` (stereo not given), the EC50 was > 200 µM and the IC50 was 7.94 µM. For `C/C=C/c1cc(=O)c([C@@H]2OC(=O)c3cc(OC)cc(OC)c32)co1`, the EC50 was > 200 µM and the IC50 was determined as 83.2 µM. On the same counts, the results for `COc1cc(C=C2C(=O)NC(=O)NC2=O)ccc1OCc1ccccc1` are > 93.3 µM and 89.1 µM. For `CCOCNC=O` the same measures were > 2400 µM and 1480 µM. For `CN1CCN(C2Sc3ccccc3C(=O)N3CCCC23)CC1` (stereo not given) the same measures were > 126 µM and > 126 µM. With `O=C(c1nc2ccc(Cl)cc2[nH]c1=O)C(O)c1ccc2c(c1)OCO2` (stereo not given), the EC50 is > 501 µM and the IC50 came to 24.5 µM. For the compound `Cc1cc(-c2ccco2)oc(=O)c1NC(=O)c1cnccn1`, the EC50 is > 200 µM and the half-maximal inhibitory concentration (IC50) is > 200 µM. As for `CCC(CO)NC(=O)Nc1ccc(S(=O)(=O)c2ccc([N+](=O)[O-])cc2)cc1` (stereo not given), the EC50 was > 200 µM and the half-inhibitory concentration (IC50) is 12 µM.

Usually IC50 stands for the concentration that gives 50% inhibition. As usually defined, the EC50 is the concentration giving half of the maximal effect.
